{"source": "patent US20090136616A1", "about": "“METHODS OF FEEDING RUMINANTS ON WINTER FORAGE SUPPLEMENTING WITH ZEOLITE” (priority 2007, published 2009)", "key": {"[1]": {"system": "Char-Hereford cross heifer calves", "assay_type": "in vivo", "description": "The experimental animals were Char-Hereford cross unweaned heifer calves originating from Western Ontario and Eastern Manitoba Canada. On arrival they were vaccinated for IBR, PI3 and BVD. They were treated for internal and external parasites with Ivomec. They were implanted with Synovex C.\nApproximately 350 head of calves were purchased weighing approximately 500 lbs. From this group 160 head and were selected for the experiment and randomly allotted into four experimental groups. Each treatment contains 5 reps of 8 head each. They were grown on a medium energy level diet limit fed calculated to obtain a daily gain of approximately 2.6 lbs. Length of feeding period will be approximately 100 days. After arrival and prior to the trial allotment they were each-backgrounded for approximately 3-4 weeks. They averaged approximately 550 lbs at the beginning of the trial.\nData collected included: • 1. Gain, consumption and conversions at 28 day intervals and overall. • 2. Observations on bloat and metabolic problems. • 3. Cost of gain by treatment including feed and feed additive cost, with no yardage or “mark up”.\nOriginally the trial was scheduled for 100 days, but because of unusually good performance, it was decided to terminate at 91 days."}, "[2]": {"system": "Angus cross steer and heifer calves", "details": "bovine, in vivo", "description": "The experimental animals were Angus cross steer and heifer calves from Manitoba, Canada. They were trucked to the experimental feedlot located near Kitchener, Ontario, Canada. On arrival of the animal received IBR, PIP and BVD vaccine plus Covexina. They were also treated for internal and external parasites with Ivomec pour on. Prior to the beginning of this trial the calves were preconditioned for approximately 45 days and adapted to a high concentrate diet.\nFollowing the preconditioning period, unhealthy calves were removed and the remaining calves were divided into steer and heifer groups. These groups were then divided at random into 20 pens of steers and 20 pens of heifers. Each of the pens contained 8 head of calves. Five pens of steers and 5 pens of heifers were then allotted to each of 4 experimental treatments.\nInitial, 28 day interim weights and final weights were based on gross weights less a 4% pencil shrink. Experimental data collected included average daily gain, feed consumption and feed conversions. In addition, death loss and bloat problems were observed. At the termination of the trial, Rumen pH was measured on 4 animals from each treatment using a Geishauser Probe. The pH measurements were taken at 2, 4 and 6 hours after feeding.\nA calcium clinoptilolite zeolite (Biolite®) was added in place of an equivalent amount of corn. […]"}, "feedlot cattle": {"system": "feedlot cattle", "experiment": "Summary of seven feedlot experiments with Biolite in med and n-med finishing diets (rumen pH, liver abscesses, performance)", "assay_type": "in vivo", "details": "sample collected by Geishauser Probe prior to the morning feeding; B at 1.2% DMB", "excerpt": "These diets have been composed of corn silage for roughage, flaked corn, and a substantial amount of wet corn milling byproducts.\nThe feed additives used included Monensin sodium (R) and Tylosin phosphate (T).\nData collected included daily gain, consumption, feed efficiency, rumen pH and observations on bloat and metabolic problems. Carcass data including liver abscess occurrence were collected.\nRumen samples were collected from cattle prior to the morning feeding using a Geishauser Probe."}, "[3]": {"details": "summarized: NC vs RT and BL vs no BL treatments pooled"}}, "note": "Like-named read-outs stand apart in the source and are kept apart here.", "data": [{"substance": "Nova-Cell [NC]", "values": [{"measurement": "Bloat Died", "setting": "[1]; 91 days", "result": 0}, {"measurement": "Bloat Treated", "setting": "[1]; 91 days", "result": 0}, {"measurement": "Consumption", "setting": "[1]; 91 days", "result": "17.0αb"}, {"measurement": "Conversions", "setting": "[1]; 91 days", "result": 5.97, "unit": "b"}, {"measurement": "ADG", "setting": "[1]; 91 days, limit fed grow ration, BL at 1.2% DMB", "result": 2.85, "unit": "b"}, {"measurement": "ADG", "setting": "[1]; [3]", "result": "3.03α"}, {"measurement": "Consumption", "setting": "[1]; [3]", "result": "17.11α"}, {"measurement": "Conversions", "setting": "[1]; [3]", "result": 5.70}]}, {"substance": "calcium clinoptilolite zeolite [Biolite ®]", "values": [{"measurement": "Metabolics Treated", "setting": "[2]", "result": 4}]}, {"substance": "Monensin sodium [R]", "values": [{"measurement": "rumen pH", "setting": "feedlot cattle", "result": "R 6.43b means with different super script letter differ, P < .OS O 6.46b"}]}, {"substance": "Nova-Cell + Biolite [NC + BL]", "values": [{"measurement": "Bloat Treated", "setting": "[1]; bovine, in vivo", "result": 0}]}]}
